Reference: ChEMBL document CHEMBL5620419, “Discovery of new Lenalidomide derivatives as potent and selective GSPT1 degraders” (Eur J Med Chem, 2023)

Biological target: Protein cereblon/Eukaryotic peptide chain release factor GTP-binding subunit ERF3A (Homo sapiens, UniProt P15170+Q96SW2)
Test: PROTAC activity at CRBN/GSPT1 in human U-937 cells assessed as degradation of GSPT1 measured after 6 hrs by Western blot analysis
Assay type: cell-based

Protein cereblon/Eukaryotic peptide chain release factor GTP-binding subunit ERF3A, sequence (Q96SW2 whole entry): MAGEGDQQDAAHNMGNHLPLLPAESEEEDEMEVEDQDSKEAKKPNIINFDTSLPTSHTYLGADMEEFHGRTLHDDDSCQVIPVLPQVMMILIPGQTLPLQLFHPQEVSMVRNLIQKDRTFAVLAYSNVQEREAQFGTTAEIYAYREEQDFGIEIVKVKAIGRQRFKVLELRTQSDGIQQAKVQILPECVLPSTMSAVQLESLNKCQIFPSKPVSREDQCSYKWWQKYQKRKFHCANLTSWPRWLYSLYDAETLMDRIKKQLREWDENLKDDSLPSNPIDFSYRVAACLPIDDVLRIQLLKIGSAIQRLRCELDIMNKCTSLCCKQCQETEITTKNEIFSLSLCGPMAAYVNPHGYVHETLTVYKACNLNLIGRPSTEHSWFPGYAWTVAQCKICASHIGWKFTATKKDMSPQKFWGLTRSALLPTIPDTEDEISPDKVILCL
Protein cereblon/Eukaryotic peptide chain release factor GTP-binding subunit ERF3A, sequence (P15170 whole entry): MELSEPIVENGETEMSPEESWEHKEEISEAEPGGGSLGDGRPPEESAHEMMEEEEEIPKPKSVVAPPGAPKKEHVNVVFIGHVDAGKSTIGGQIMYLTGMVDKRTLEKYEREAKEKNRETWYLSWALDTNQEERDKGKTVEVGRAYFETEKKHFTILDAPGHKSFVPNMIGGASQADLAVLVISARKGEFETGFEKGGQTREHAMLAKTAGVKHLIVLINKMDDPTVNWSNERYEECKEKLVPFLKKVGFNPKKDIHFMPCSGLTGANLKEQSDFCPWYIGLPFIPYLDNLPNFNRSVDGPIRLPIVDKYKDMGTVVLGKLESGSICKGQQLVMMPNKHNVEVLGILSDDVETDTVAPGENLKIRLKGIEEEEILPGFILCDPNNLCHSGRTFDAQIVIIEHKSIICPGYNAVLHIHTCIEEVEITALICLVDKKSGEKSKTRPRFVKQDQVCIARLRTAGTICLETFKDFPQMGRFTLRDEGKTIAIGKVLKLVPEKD

| Structure (SMILES) | EC50 [nM] |
| --- | --- |
| Cc1ccc(NC(=O)CNc2ccc3c(c2)C(=O)N(C2CCC(=O)NC2=O)C3)cc1Cl (centres undefined) | > 10000 |
| Cc1ccc(NC(=O)/C=C/c2cccc3c2CN(C2CCC(=O)NC2=O)C3=O)cc1Cl (centres undefined) | 3060 |
| Cc1c(Cl)cc(NC(=O)CCc2ccc3c(c2)C(=O)N(C2CCC(=O)NC2=O)C3)cc1CN1CCN(C)CC1 (centres undefined) | 2200 |
| Cc1c(Cl)cc(NC(=O)CCc2ccc3c(c2)C(=O)N(C2CCC(=O)NC2=O)C3)cc1CN1CCC(N2CCOCC2)CC1 (centres undefined) | 176 |
| Cc1c(Cl)cc(NC(=O)CCc2ccc3c(c2)C(=O)N(C2CCC(=O)NC2=O)C3)cc1CN1CC2(COC2)C1 (centres undefined) | 86 |
| Cc1c(Cl)cc(NC(=O)CCc2ccc3c(c2)C(=O)N(C2CCC(=O)NC2=O)C3)cc1CN1CCOCC1 (centres undefined) | 48 |

Next, values leading:

| EC50 [nM] | Structure (SMILES) |
| --- | --- |
| > 10000 | Cc1cc(NC(=O)C(C)Cc2ccc3c(c2)CN(C2CCC(=O)NC2=O)C3=O)ccc1Cl (centres undefined) |
| 18 | Cc1ccc(NC(=O)CCc2ccc3c(c2)C(=O)N(C2CCC(=O)NC2=O)C3)cc1Cl (centres undefined) |
| 143 | Cc1cc(NC(=O)CCc2ccc3c(c2)C(=O)N(C2CCC(=O)NC2=O)C3)ccc1Cl (centres undefined) |
